In PMC5817852 (The Open Medicinal Chemistry Journal, 2018) one finds CC50 data, which are given here for 15 compounds.

The first data set concerns HT29 colorectal carcinoma. As to the kind of experiment: qHTS cell viability screen (Cell Titer Glo), HT29.
Details: not given
Format: cell-based.
In general, CC50 refers to the concentration that lowers cell viability or growth by half. As to `CSc1ccc(/C=C2/C(C)=C(CN(Cc3ccc(F)cc3)Cc3ccc(F)cc3)c3cc(F)ccc32)cc1` [Compound 50], the CC50 is greater than 50 µM.

Compound `CSc1ccc(/C=C2/C(C)=C(CN(Cc3ccc(N(C)C)cc3)Cc3ccc(N(C)C)cc3)c3cc(F)ccc32)cc1` [Compound 51] had a CC50 greater than 50 µM.

Take `CSc1ccc(/C=C2/C(C)=C(CN(Cc3ccc4ccccc4c3)Cc3ccc4ccccc4c3)c3cc(F)ccc32)cc1` [Compound 52]: the CC50 is greater than 50 µM.

Turning to `CSc1ccc(/C=C2/C(C)=C(CN(CCc3ccccc3)CCc3ccccc3)c3cc(F)ccc32)cc1` [Compound 53], the CC50 is greater than 50 µM.

In turn, `CSc1ccc(/C=C2/C(C)=C(CN(Cc3ccco3)Cc3ccco3)c3cc(F)ccc32)cc1` [Compound 54] displayed a CC50 greater than 50 µM.

Compound `COc1cc(/C=C2/C(C)=C(CN(Cc3ccccc3)Cc3ccccc3)c3cc(F)ccc32)cc(OC)c1OC` [Compound 55] displayed a CC50 greater than 50 µM.

For `COc1cc(/C=C2/C(C)=C(CN(Cc3ccc(F)cc3)Cc3ccc(F)cc3)c3cc(F)ccc32)cc(OC)c1OC` [Compound 57], the CC50 was greater than 50 µM.

`COc1ccc(CN(CC2=C(C)/C(=C/c3cc(OC)c(OC)c(OC)c3)c3ccc(F)cc32)Cc2ccc(OC)cc2)cc1` [Compound 59] returned a CC50 greater than 50 µM.

`COc1cc(/C=C2/C(C)=C(CN(Cc3ccco3)Cc3ccco3)c3cc(F)ccc32)cc(OC)c1OC` [Compound 61] gave a 50% cytotoxic concentration (CC50) greater than 50 µM.

Still in this data set, the particulars now being: HT29 colorectal carcinoma, 72 hours, cell viability Cell Titer Glo; read-out: CC50 HT29.
In the case of `CSc1ccc(/C=C2/C(C)=C(CNC(=O)c3ccco3)c3cc(F)ccc32)cc1` [Compound 19], the CC50 is 33.2 ± 3.43 µM.

On to `COc1cc(/C=C2/C(C)=C(CNC(=O)c3ccco3)c3cc(F)ccc32)cc(OC)c1OC` [Compound 27], for which the CC50 is greater than 50 µM.

`CSc1ccc(/C=C2/C(C)=C(CNS(=O)(=O)c3ccc(C)cc3)c3cc(F)ccc32)cc1` [Compound 37]: the cytotoxic concentration (CC50) turned out to be 8.08 ± 0.6 µM.

Regarding `CSc1ccc(/C=C2/C(C)=C(CNS(=O)(=O)c3cccc4c(N(C)C)cccc34)c3cc(F)ccc32)cc1` [Compound 40], the CC50 is 38.4 ± 10.1 µM.

With `COc1cc(/C=C2/C(C)=C(CNS(C)(=O)=O)c3cc(F)ccc32)cc(OC)c1OC` [Compound 41], the CC50 was determined as 20 ± 4.86 µM.

`COc1cc(/C=C2/C(C)=C(CNS(=O)(=O)c3ccccc3)c3cc(F)ccc32)cc(OC)c1OC` [Compound 43]: the CC50 is 43.8 ± 23 µM.

The next data set concerns PC3 prostate cancer cell line. As to the kind of experiment: qHTS cell viability screen (Cell Titer Glo), PC3. Format: cell-based. Conditions: PC3 prostate, 72 hours, cell viability Cell Titer Glo; read-out: CC50 PC3. (In qHTS, concentration-response curves come from the screen itself.)
For the compound `CSc1ccc(/C=C2/C(C)=C(CNC(=O)c3ccco3)c3cc(F)ccc32)cc1` [Compound 19], the cytotoxic concentration (CC50) stood at 39.8 ± 6.81 µM.

Regarding `COc1cc(/C=C2/C(C)=C(CNC(=O)c3ccco3)c3cc(F)ccc32)cc(OC)c1OC` [Compound 27], the CC50 was greater than 50 µM.

With `CSc1ccc(/C=C2/C(C)=C(CNS(=O)(=O)c3ccc(C)cc3)c3cc(F)ccc32)cc1` [Compound 37], the CC50 was greater than 50 µM.

As for `CSc1ccc(/C=C2/C(C)=C(CNS(=O)(=O)c3cccc4c(N(C)C)cccc34)c3cc(F)ccc32)cc1` [Compound 40], the CC50 is greater than 50 µM.

As for `COc1cc(/C=C2/C(C)=C(CNS(C)(=O)=O)c3cc(F)ccc32)cc(OC)c1OC` [Compound 41], the CC50 was found to be 18.9 ± 2.47 µM.

For `COc1cc(/C=C2/C(C)=C(CNS(=O)(=O)c3ccccc3)c3cc(F)ccc32)cc(OC)c1OC` [Compound 43], the CC50 amounted to 40.9 ± 16.8 µM.

For the compound `CSc1ccc(/C=C2/C(C)=C(CN(Cc3ccc(F)cc3)Cc3ccc(F)cc3)c3cc(F)ccc32)cc1` [Compound 50], the CC50 was greater than 50 µM.

Consider `CSc1ccc(/C=C2/C(C)=C(CN(Cc3ccc(N(C)C)cc3)Cc3ccc(N(C)C)cc3)c3cc(F)ccc32)cc1` [Compound 51], for which the CC50 is greater than 50 µM.

Regarding `CSc1ccc(/C=C2/C(C)=C(CN(Cc3ccc4ccccc4c3)Cc3ccc4ccccc4c3)c3cc(F)ccc32)cc1` [Compound 52], the CC50 was greater than 50 µM.

Take `CSc1ccc(/C=C2/C(C)=C(CN(CCc3ccccc3)CCc3ccccc3)c3cc(F)ccc32)cc1` [Compound 53]: the CC50 was greater than 50 µM.

Consider `CSc1ccc(/C=C2/C(C)=C(CN(Cc3ccco3)Cc3ccco3)c3cc(F)ccc32)cc1` [Compound 54], for which the CC50 was greater than 50 µM.

With `COc1cc(/C=C2/C(C)=C(CN(Cc3ccccc3)Cc3ccccc3)c3cc(F)ccc32)cc(OC)c1OC` [Compound 55], the CC50 is greater than 50 µM.

On to `COc1cc(/C=C2/C(C)=C(CN(Cc3ccc(F)cc3)Cc3ccc(F)cc3)c3cc(F)ccc32)cc(OC)c1OC` [Compound 57], for which the CC50 was greater than 50 µM.

In the case of `COc1ccc(CN(CC2=C(C)/C(=C/c3cc(OC)c(OC)c(OC)c3)c3ccc(F)cc32)Cc2ccc(OC)cc2)cc1` [Compound 59], the CC50 was greater than 50 µM.

Consider `COc1cc(/C=C2/C(C)=C(CN(Cc3ccco3)Cc3ccco3)c3cc(F)ccc32)cc(OC)c1OC` [Compound 61], for which the CC50 is greater than 50 µM.

The next data set relates to MDA-MB-231 breast cancer cell line. Kind of data set: qHTS cell viability screen (Cell Titer Glo), MDA-MB-231.
Details: not given
Type of data set: cell-based.
`CSc1ccc(/C=C2/C(C)=C(CN(Cc3ccc(F)cc3)Cc3ccc(F)cc3)c3cc(F)ccc32)cc1` [Compound 50]: the CC50 was greater than 50 µM.

Consider `CSc1ccc(/C=C2/C(C)=C(CN(Cc3ccc(N(C)C)cc3)Cc3ccc(N(C)C)cc3)c3cc(F)ccc32)cc1` [Compound 51], for which the CC50 is greater than 50 µM.

In turn, `CSc1ccc(/C=C2/C(C)=C(CN(Cc3ccc4ccccc4c3)Cc3ccc4ccccc4c3)c3cc(F)ccc32)cc1` [Compound 52] had a cytotoxic concentration (CC50) greater than 50 µM.

Turning to `CSc1ccc(/C=C2/C(C)=C(CN(CCc3ccccc3)CCc3ccccc3)c3cc(F)ccc32)cc1` [Compound 53], the CC50 was greater than 50 µM.

`CSc1ccc(/C=C2/C(C)=C(CN(Cc3ccco3)Cc3ccco3)c3cc(F)ccc32)cc1` [Compound 54]: the CC50 is 48.8 ± 20.3 µM.

For the compound `COc1cc(/C=C2/C(C)=C(CN(Cc3ccccc3)Cc3ccccc3)c3cc(F)ccc32)cc(OC)c1OC` [Compound 55], the CC50 is greater than 50 µM.

`COc1cc(/C=C2/C(C)=C(CN(Cc3ccc(F)cc3)Cc3ccc(F)cc3)c3cc(F)ccc32)cc(OC)c1OC` [Compound 57] gave a CC50 greater than 50 µM.

`COc1ccc(CN(CC2=C(C)/C(=C/c3cc(OC)c(OC)c(OC)c3)c3ccc(F)cc32)Cc2ccc(OC)cc2)cc1` [Compound 59] showed a CC50 greater than 50 µM.

As to `COc1cc(/C=C2/C(C)=C(CN(Cc3ccco3)Cc3ccco3)c3cc(F)ccc32)cc(OC)c1OC` [Compound 61], the CC50 is greater than 50 µM.

Staying with this data set, now noted: MDA-MB-231 breast, 96 hours, cell viability Cell Titer Glo; read-out: CC50 MDA-MB-231.
`CSc1ccc(/C=C2/C(C)=C(CNC(=O)c3ccco3)c3cc(F)ccc32)cc1` [Compound 19]: the 50% cytotoxic concentration (CC50) amounted to 41.2 ± 7.6 µM.

As to `COc1cc(/C=C2/C(C)=C(CNC(=O)c3ccco3)c3cc(F)ccc32)cc(OC)c1OC` [Compound 27], the CC50 was greater than 50 µM.

Take `CSc1ccc(/C=C2/C(C)=C(CNS(=O)(=O)c3ccc(C)cc3)c3cc(F)ccc32)cc1` [Compound 37]: the CC50 was 20.5 ± 5.18 µM.

In the case of `CSc1ccc(/C=C2/C(C)=C(CNS(=O)(=O)c3cccc4c(N(C)C)cccc34)c3cc(F)ccc32)cc1` [Compound 40], the CC50 was greater than 50 µM.

In the case of `COc1cc(/C=C2/C(C)=C(CNS(C)(=O)=O)c3cc(F)ccc32)cc(OC)c1OC` [Compound 41], the CC50 turned out to be 12.9 ± 1.79 µM.

For `COc1cc(/C=C2/C(C)=C(CNS(=O)(=O)c3ccccc3)c3cc(F)ccc32)cc(OC)c1OC` [Compound 43], the CC50 came out at 16.3 ± 3.96 µM.
